Measured values: article PMC12257073 (Cancer Research Communications, 2025)

Assay: Adverse events (treatment-related and all-cause) and dose-limiting toxicities, NCI CTCAE version 4.0
Settings: all-cause adverse events
[1] = Group 1, Skin and subcutaneous tissue disorders

Procedure: The phase 1b portion of the study used a standard 3 + 3 dose-escalation design with a starting dose level 1 (DL1) of 37 mg oral daily TP-0903 (Supplementary Table S2) based on experience with 50 mg oral daily as a single agent in patients with solid tumors ([25]). Dose-limiting toxicities (DLT) were evaluated to establish the dose brought forward for an expansion cohort (phase 2). Seven patients were enrolled in the phase 1b study, which was completed in January 2021 with the decision to move forward with an expansion cohort of 37 mg oral daily. Across the phase 1b and phase 2 studies, 15 patients were enrolled and started on 37 mg TP-0903 oral daily on days 1 to 21 (group 1). […] One additional patient was enrolled at this time but was inadvertently started on 25 mg TP-0903 oral daily on days 1 to 21. […] In May 2021, an amendment was approved to allow enrollment of a new group 2 at 25mg oral daily on days 1 to 21 of TP-0903 (DL-1) in stage 2 of the phase 2 study.
Clinical response was assessed according to the modified 2017 European LeukemiaNet AML criteria ([26]). The primary endpoint was achievement of CR within six cycles of therapy. Secondary endpoints included toxicity, duration of response, OS, and the proportion of eligible patients who effectively transitioned to allogeneic stem cell transplantation. Exploratory endpoints included pharmacokinetics (PK), correlative genetic, and biochemical data; correlations between morphologic remission, spectral flow cytometry, and mutational remission; and duration of remission or survival. […] Adverse events (AE) were graded according to the NCI Common Terminology Criteria for Adverse Events version 4.0 ([27]).

CN1CCN(Cc2ccc(Nc3ncc(Cl)c(Nc4ccccc4S(=O)(=O)N(C)C)n3)cc2)CC1.O=C(O)C(O)C(O)C(=O)O.O=C(O)C(O)C(O)C(=O)O [TP-0903, 2-(5-chloro-2-(4-((4-methylpiperazin-1-yl)methyl)phenylamino)pyrimidin-4-yl)amino-N,N-dimethylbenzene-1-sulfonamide di-tartrate salt]
Atrial fibrillation with RVR, All (Group 1, Missing Categories): 0 (0) | Atrial fibrillation with RVR, Grade 1 2 (Group 1, Missing Categories): 0 (0) | Atrial fibrillation with RVR, Grade 3+ (Group 1, Missing Categories): 0 (0) | COPD exacerbation, All (Group 1, Missing Categories): 1 (6.7) | COPD exacerbation, Grade 1 2 (Group 1, Missing Categories): 1 (6.7) | COPD exacerbation, Grade 3+ (Group 1, Missing Categories): 0 (0) | Chest pain (non-cardiac), All (Group 1, Missing Categories): 0 (0) | Chest pain (non-cardiac), Grade 1 2 (Group 1, Missing Categories): 0 (0) | Chest pain (non-cardiac), Grade 3+ (Group 1, Missing Categories): 0 (0) | Death, NOS, All (Group 1, Missing Categories): 1 (6.7) | Death, NOS, Grade 1 2 (Group 1, Missing Categories): 0 (0) | Death, NOS, Grade 3+ (Group 1, Missing Categories): 1 (6.7) | Diarrhea (intermittent), All (Group 1, Missing Categories): 0 (0) | Diarrhea (intermittent), Grade 1 2 (Group 1, Missing Categories): 0 (0) | Diarrhea (intermittent), Grade 3+ (Group 1, Missing Categories): 0 (0) | Hand-Foot Syndrome, All (Group 1, Missing Categories): 1 (6.7) | Hand-Foot Syndrome, Grade 1 2 (Group 1, Missing Categories): 1 (6.7) | Hand-Foot Syndrome, Grade 3+ (Group 1, Missing Categories): 0 (0) | Hip Pain, All (Group 1, Missing Categories): 1 (6.7) | Hip Pain, Grade 1 2 (Group 1, Missing Categories): 1 (6.7) | Hip Pain, Grade 3+ (Group 1, Missing Categories): 0 (0) | Hypokalemia (intermittent), All (Group 1, Missing Categories): 0 (0) | Hypokalemia (intermittent), Grade 1 2 (Group 1, Missing Categories): 0 (0) | Hypokalemia (intermittent), Grade 3+ (Group 1, Missing Categories): 0 (0) | Hypotension (intermittent), All (Group 1, Missing Categories): 0 (0) | Hypotension (intermittent), Grade 1 2 (Group 1, Missing Categories): 0 (0) | Hypotension (intermittent), Grade 3+ (Group 1, Missing Categories): 0 (0) | INR - Increased, All (Group 1, Missing Categories): 1 (6.7) | INR - Increased, Grade 1 2 (Group 1, Missing Categories): 1 (6.7) | INR - Increased, Grade 3+ (Group 1, Missing Categories): 0 (0) | Inflammation (bilateral knee), All (Group 1, Missing Categories): 0 (0) | Inflammation (bilateral knee), Grade 1 2 (Group 1, Missing Categories): 0 (0) | Inflammation (bilateral knee), Grade 3+ (Group 1, Missing Categories): 0 (0) | Itching (intermittent), All (Group 1, Missing Categories): 0 (0) | Itching (intermittent), Grade 1 2 (Group 1, Missing Categories): 0 (0) | Itching (intermittent), Grade 3+ (Group 1, Missing Categories): 0 (0) | Microvascular ischemic disease, All (Group 1, Missing Categories): 0 (0) | Microvascular ischemic disease, Grade 1 2 (Group 1, Missing Categories): 0 (0) | Microvascular ischemic disease, Grade 3+ (Group 1, Missing Categories): 0 (0) | Pain (leg), All (Group 1, Missing Categories): 0 (0) | Pain (leg), Grade 1 2 (Group 1, Missing Categories): 0 (0) | Pain (leg), Grade 3+ (Group 1, Missing Categories): 0 (0) | Retinal Detachment, All (Group 1, Missing Categories): 1 (6.7) | Retinal Detachment, Grade 1 2 (Group 1, Missing Categories): 1 (6.7) | Retinal Detachment, Grade 3+ (Group 1, Missing Categories): 0 (0) | Steroid-induced hyperglycemia, All (Group 1, Missing Categories): 0 (0) | Steroid-induced hyperglycemia, Grade 1 2 (Group 1, Missing Categories): 0 (0) | Steroid-induced hyperglycemia, Grade 3+ (Group 1, Missing Categories): 0 (0) | Symptomatic anemia, All (Group 1, Missing Categories): 0 (0) | Symptomatic anemia, Grade 1 2 (Group 1, Missing Categories): 0 (0) | Symptomatic anemia, Grade 3+ (Group 1, Missing Categories): 0 (0) | lung fullness, All (Group 1, Missing Categories): 1 (6.7) | lung fullness, Grade 1 2 (Group 1, Missing Categories): 1 (6.7) | lung fullness, Grade 3+ (Group 1, Missing Categories): 0 (0) | neuropathy (BLE), All (Group 1, Missing Categories): 0 (0) | neuropathy (BLE), Grade 1 2 (Group 1, Missing Categories): 0 (0) | neuropathy (BLE), Grade 3+ (Group 1, Missing Categories): 0 (0) | pericarditis (intermittent), All (Group 1, Missing Categories): 0 (0) | pericarditis (intermittent), Grade 1 2 (Group 1, Missing Categories): 0 (0) | pericarditis (intermittent), Grade 3+ (Group 1, Missing Categories): 0 (0) | Dry skin, All [1]: 1 (6.7) | Dry skin, Grade 1 2 [1]: 1 (6.7) | Dry skin, Grade 3+ [1]: 0 (0) | Ecchymosis, All [1]: 1 (6.7) | Ecchymosis, Grade 1 2 [1]: 1 (6.7) | Ecchymosis, Grade 3+ [1]: 0 (0) | Erythema nodosum, All [1]: 0 (0) | Erythema nodosum, Grade 1 2 [1]: 0 (0) | Erythema nodosum, Grade 3+ [1]: 0 (0) | Erythema, All [1]: 1 (6.7) | Erythema, Grade 1 2 [1]: 1 (6.7) | Erythema, Grade 3+ [1]: 0 (0) | Hyperhidrosis, All [1]: 0 (0) | Hyperhidrosis, Grade 1 2 [1]: 0 (0) | Hyperhidrosis, Grade 3+ [1]: 0 (0) | Nail discolouration, All [1]: 1 (6.7) | Nail discolouration, Grade 1 2 [1]: 1 (6.7) | Nail discolouration, Grade 3+ [1]: 0 (0) | Petechiae, All [1]: 0 (0) | Petechiae, Grade 1 2 [1]: 0 (0) | Petechiae, Grade 3+ [1]: 0 (0) | Photosensitivity reaction, All [1]: 1 (6.7) | Photosensitivity reaction, Grade 1 2 [1]: 1 (6.7) | Photosensitivity reaction, Grade 3+ [1]: 0 (0) | Pruritus, All [1]: 1 (6.7) | Pruritus, Grade 1 2 [1]: 1 (6.7) | Pruritus, Grade 3+ [1]: 0 (0) | Rash papular, All [1]: 0 (0) | Rash papular, Grade 1 2 [1]: 0 (0) | Rash papular, Grade 3+ [1]: 0 (0) | Rash, All [1]: 1 (6.7) | Rash, Grade 1 2 [1]: 1 (6.7) | Rash, Grade 3+ [1]: 0 (0) | Scab, All [1]: 0 (0) | Scab, Grade 1 2 [1]: 0 (0) | Scab, Grade 3+ [1]: 0 (0) | Skin disorder, All [1]: 1 (6.7) | Skin disorder, Grade 1 2 [1]: 1 (6.7) | Skin disorder, Grade 3+ [1]: 0 (0) | Skin lesion, All [1]: 0 (0) | Skin lesion, Grade 1 2 [1]: 0 (0) | Skin lesion, Grade 3+ [1]: 0 (0) | Swelling face, All [1]: 0 (0) | Swelling face, Grade 1 2 [1]: 0 (0) | Swelling face, Grade 3+ [1]: 0 (0) | Hypertension, All (Group 1, Vascular disorders): 1 (6.7) | Hypertension, Grade 1 2 (Group 1, Vascular disorders): 0 (0) | Hypertension, Grade 3+ (Group 1, Vascular disorders): 1 (6.7) | Hypotension, All (Group 1, Vascular disorders): 3 (20) | Hypotension, Grade 1 2 (Group 1, Vascular disorders): 2 (13.3) | Hypotension, Grade 3+ (Group 1, Vascular disorders): 1 (6.7) | Lymphoedema, All (Group 1, Vascular disorders): 0 (0) | Lymphoedema, Grade 1 2 (Group 1, Vascular disorders): 0 (0) | Lymphoedema, Grade 3+ (Group 1, Vascular disorders): 0 (0) | Peripheral venous disease, All (Group 1, Vascular disorders): 0 (0) | Peripheral venous disease, Grade 1 2 (Group 1, Vascular disorders): 0 (0) | Peripheral venous disease, Grade 3+ (Group 1, Vascular disorders): 0 (0) | Atrial fibrillation with RVR, All (Group 2, Missing Categories): 1 (8.3) | Atrial fibrillation with RVR, Grade 1 2 (Group 2, Missing Categories): 1 (8.3) | Atrial fibrillation with RVR, Grade 3+ (Group 2, Missing Categories): 0 (0) | COPD exacerbation, All (Group 2, Missing Categories): 0 (0) | COPD exacerbation, Grade 1 2 (Group 2, Missing Categories): 0 (0) | COPD exacerbation, Grade 3+ (Group 2, Missing Categories): 0 (0) | Chest pain (non-cardiac), All (Group 2, Missing Categories): 1 (8.3) | Chest pain (non-cardiac), Grade 1 2 (Group 2, Missing Categories): 1 (8.3) | Chest pain (non-cardiac), Grade 3+ (Group 2, Missing Categories): 0 (0) | Death, NOS, All (Group 2, Missing Categories): 0 (0) | Death, NOS, Grade 1 2 (Group 2, Missing Categories): 0 (0) | Death, NOS, Grade 3+ (Group 2, Missing Categories): 0 (0) | Diarrhea (intermittent), All (Group 2, Missing Categories): 1 (8.3) | Diarrhea (intermittent), Grade 1 2 (Group 2, Missing Categories): 1 (8.3) | Diarrhea (intermittent), Grade 3+ (Group 2, Missing Categories): 0 (0) | Hand-Foot Syndrome, All (Group 2, Missing Categories): 0 (0) | Hand-Foot Syndrome, Grade 1 2 (Group 2, Missing Categories): 0 (0) | Hand-Foot Syndrome, Grade 3+ (Group 2, Missing Categories): 0 (0) | Hip Pain, All (Group 2, Missing Categories): 0 (0) | Hip Pain, Grade 1 2 (Group 2, Missing Categories): 0 (0) | Hip Pain, Grade 3+ (Group 2, Missing Categories): 0 (0) | Hypokalemia (intermittent), All (Group 2, Missing Categories): 1 (8.3) | Hypokalemia (intermittent), Grade 1 2 (Group 2, Missing Categories): 1 (8.3) | Hypokalemia (intermittent), Grade 3+ (Group 2, Missing Categories): 0 (0)
